Measured values taken from patent US20230172894A1, “COMBINATION TREATMENT FOR FUMARATE-RELATED DISEASES” (IMCYSE SA, priority 2020, published 2023).
Where a name gives a salt, the structure may show the parent alone.

How the values were obtained:
[1] = tested on: experimental auto-immune encephalomyelitis (EAE) development in mice; test: Example 1 (repeated experiment): plasma neurofilament light (NF-L) levels in EAE mice, Simoa NF-light assay; assay type: in vivo, female C57BL/6 mice; settings: Example 1 regimen repeated; Day 28 plasma; vs negative control
Procedure: On Day 28, blood was collected from all mice into tubes containing K2EDTA and mixed gently. Blood was then centrifuged at ˜10000 g for 5 minutes. Plasma was transferred into Eppendorf tubes and stored at −80° C. until shipment to Quanterix™. Plasma Neurofilament light (NF-L) protein levels were quantified using Simoa® NF-light Advantage kit, a digital immunoassay for the quantitative determination of NF-L in serum, plasma and CSF. The used antibodies (Uman Diagnostics, Umea Sweden) also cross react with murine, bovine and macaque NF-L epitopes and as such, this assay can be used for research with these species. All samples were tested in duplicate at a dilution factor of 40×.
Neurofilament light (NF-L) is a 68 kDa cytoskeletal filament protein that is expressed in neurons, as one of the major components of the neuronal cytoskeleton that provide structural support for the axon. Neurofilaments can be released following axonal damage or neuronal degeneration.

[2] = tested on: experimental auto-immune encephalomyelitis (EAE) development in mice; settings: Example 1; for AUC (area under the curve) of EAE scores: day 7 to 28 scoring; for AUC (area under the curve) of EAE scores / end score (clinical EAE score 0-5) / MMS (mean maximal score): vs negative control; for AUC (area under the curve) of EAE scores / disease onset / end score (clinical EAE score 0-5) / MMS (mean maximal score): combination also vs each single treatment; for disease onset / end score (clinical EAE score 0-5): peptide 100 μg/Alum s.c. days −21, −14, −7, BG-12 100 mg/kg p.o. BID days 0 to 27; for disease onset: vs negative control (Saline/Vehicle)
Excerpt: Example 1: Effect of the prophylactic administration of an immunogenic peptide comprising a MOG35-55 MHCII T cell epitope and a HCPYC oxidoreductase motif in combination with dimethyl fumarate (BG-12, […]™) on experimental auto-immune encephalomyelitis (EAE) development in mice.
The study used a total of 64 female C57BL/6 mice (Taconic Biosciences, 10 weeks old on Day 0). Mice were acclimated for 8 days prior to the first injection. Mice were assigned to groups in a balanced manner to achieve similar average weight across the groups at the start of the study.
Treatment 1 was administered once on each of the days indicated in Table 1, s.c., at a volume of 0.05 mL/site, each mouse receiving injection at two sites, for a total of 0.1 mL/mouse/dosing day, corresponding to 100 μg of peptide.
BG-12 was dosed at 100 mg/kg. All dosing was done at the same time (+/−1 hour) each dosing day. For the BID groups there were no less than 10 and no more than 14 hours between doses.
For Treatment 1, 0.9% NaCl solution was prepared at each dosing day. […] (SEQ ID NO: 185), comprising an oxidoreductase motif HCPYC (SEQ ID NO: 71), a linker GW, a murine Myelin Oligodendrocyte Glycoprotein (MOG35-55) MHCII T cell epitope […] (SEQ ID NO: 169) and a flanking sequence HLYR (SEQ ID NO: 186) (Smart Bioscience) was solubilized immediately before use. Lyophilized IMCY-0189 was thawed at room temperature for 10 minutes, resuspended in Na Acetate buffer 50 mM pH 5.4 and incubated at room temperature for 5 minutes. Reconstituted peptide was then mixed with Imject™ Alum Adjuvant before injection.
For Treatment 2, vehicle was 0.5% HPMC, 0.2% Tween 20, and 50 mM citrate buffer at pH 4. BG-12 (or […]™, from Santa Cruz Biotechnology, catalog number sc-239774) was prepared once a week. At each preparation the required amount of BG-12 was weighed out into a mortar and triturated with a pestle. Vehicle was then added in small increments and mixed until the final volume was reached. The material was then vortexed and sonicated in a water bath until a homogeneous suspension was obtained. Formulated BG-12 was stored at 4° C., stirring continuously.
EAE was induced in all mice as follows: • Day 0, Hour 0—Immunization with a peptide corresponding to the amino acids 35-55 of MOG (MOG35-55)/CFA • Day 0, Hour 2—Injection of pertussis toxin • Day 1, Hour 0-2nd injection of pertussis toxin (24 hours after initial immunization).
Mice were injected subcutaneously at two sites in the back with the emulsion component (containing MOG35-55) of Hooke Kit™ MOG35-55/CFA Emulsion PTX, catalog number EK-2110 (lot #127, Hooke Laboratories, Lawrence Mass.). One site of injection was in the area of upper back, approximately 1 cm caudal of the neck line. The second site was in the area of lower back, approximately 2 cm cranial of the base of the tail. The injection volume was 0.1 mL at each site. Each mouse received 200 μg of MOG35-55.
Within 2 hours of the injection of emulsion, and then again 24 hours after the injection of emulsion, the pertussis toxin component of the kit was administered intraperitoneally. The pertussis toxin (lot #1008, Hooke Laboratories) was administered at 100 ng/dose for both injections and the volume of each injection was 0.1 mL.
Animals were scored daily starting from Day 7 to the end of the study. Scoring was performed blind, by a person unaware of both treatment and of previous scores for each mouse. In-between scores were assigned when the clinical signs fell between two above defined scores.
AUC, MMS, inflammation and demyelination, and NF-L levels quantification data were analyzed by performing Ordinary one-way ANOVA. Adjustment for multiplicity was performed using Holm-Sidak's method. Significant differences are referred as follows: *p<0.05, **p<0.01, ***p<0.001, ****p<0.0001.
EAE development was evaluated by comparing clinical EAE readouts for all groups to the negative control (Saline/Vehicle) group.

Row | Molecule | plasma NF-L levels [1] | mice died due to severe EAE ([2]; 16 mice per group) | mice died in group ([2]; 16 mice per group) | AUC (area under the curve) of EAE scores [2] | disease onset [2] | end score (clinical EAE score 0-5) [2] | MMS (mean maximal score) [2]
1 | HCPYCGWYRSPFSRVVHLYR [IMCY-0189] | reduced NF-L levels | 1 mouse | 2 mice | statistically significant reduced | postponed disease onset | reduced end score | statistically significant reduced
2 | COC(=O)/C=C/C(=O)OC [BG-12, dimethyl fumarate, reference compound] | – | – | No mice died | statistically significant reduced | postponed disease onset | reduced end score | statistically significant reduced
